Values of other authors as cited in paper PMC8050614 (Journal of bone and mineral research : the official journal …, 2019).

Key:
[1] = system: young wild-type mice; details: 8 weeks of treatment
[2] = system: wild-type mice; details: injection at 50 nmol/kg

Molecule | osteoclast size and/or number [1] | serum CTX1 [1] | hypercalcemic response [2]
NCCCC(O)(P(=O)(O)O)P(=O)(O)O [alendronate] | increase | decrease | 
hPTH(1–34)NH2 |  |  | frank hypercalcemic response
